# Patent publication US8691813B2, “Indole and benzoxazine derivatives as modulators of metabotropic glutamate receptors” (Janssen Pharmaceuticals, Inc., priority 2008, dated 2014)
# Assays:
# [1] = molecular target: T1, human mGluR2 (Homo sapiens, UniProt Q14416); test: [35S]GTPγS binding assay (PAM assay) using membranes from CHO cells transfected with the human mGluR2 receptor; assay type: biochemical; conditions: in presence of glutamate at predetermined EC25 concentration, membranes containing human mGluR2, averages of duplicate values of 11-concentration response curves; for EC50: read-out: GTPγS -hR2 PAM pEC50 (converted)
# T1 construct: expressed in transfected cells; host or cells: CHO cells (membrane preparation)
# T1 sequence (Q14416 19-872): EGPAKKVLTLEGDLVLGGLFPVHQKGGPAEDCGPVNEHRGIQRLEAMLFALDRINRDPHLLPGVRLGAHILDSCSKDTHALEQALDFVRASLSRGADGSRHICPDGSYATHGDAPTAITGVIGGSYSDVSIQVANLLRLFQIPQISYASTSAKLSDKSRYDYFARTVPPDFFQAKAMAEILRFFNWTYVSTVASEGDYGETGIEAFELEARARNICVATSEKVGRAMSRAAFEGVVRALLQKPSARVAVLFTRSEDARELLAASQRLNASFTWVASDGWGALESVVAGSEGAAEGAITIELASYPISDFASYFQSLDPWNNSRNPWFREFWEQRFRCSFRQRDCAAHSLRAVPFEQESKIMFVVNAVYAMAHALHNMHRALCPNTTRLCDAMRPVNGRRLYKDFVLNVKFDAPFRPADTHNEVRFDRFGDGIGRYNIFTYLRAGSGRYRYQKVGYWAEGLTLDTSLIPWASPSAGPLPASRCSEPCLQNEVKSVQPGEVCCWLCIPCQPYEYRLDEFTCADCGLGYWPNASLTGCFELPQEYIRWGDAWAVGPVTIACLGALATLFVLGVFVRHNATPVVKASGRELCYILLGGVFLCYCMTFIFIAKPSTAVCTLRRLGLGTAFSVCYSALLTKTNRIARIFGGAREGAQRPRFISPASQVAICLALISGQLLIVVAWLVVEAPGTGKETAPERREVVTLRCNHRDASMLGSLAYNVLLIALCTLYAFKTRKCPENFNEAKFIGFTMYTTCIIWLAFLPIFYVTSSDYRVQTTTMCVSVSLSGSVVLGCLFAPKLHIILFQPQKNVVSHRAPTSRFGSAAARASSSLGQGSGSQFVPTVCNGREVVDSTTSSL
# Experimental: The [^35S]GTPγS binding assay is a functional membrane-based assay used to study G-protein coupled receptor (GPCR) function whereby incorporation of a non-hydrolysable form of GTP, [^35S]GTPγS (guanosine 5′-triphosphate, labelled with […] ^35S), is measured.
# CHO-cells were cultured to pre-confluence and stimulated with 5 mM butyrate for 24 hs, prior to washing in PBS (phosphate-buffered saline), and then collection by scraping in homogenisation buffer (50 mM Tris-HCl buffer, pH 7.4, 4° C.). Cell lysates were homogenized briefly (15 s) using an ultra-turrax homogenizer. The homogenate was centrifuged at 23 500×g for 10 min. and the supernatant discarded. The pellet was resuspended in 5 mM Tris-HCl, pH 7.4 and centrifuged again (30 000×g, 20 min., 4° C.). The final pellet was resuspended in 50 mM HEPES, pH 7.4 and stored at −80° C. in appropriate aliquots before use. Protein concentration was determined by the Bradford method (Bio-Rad, USA) with bovine serum albumin as standard.
# Measurement of mGluR2 positive allosteric modulatory activity of test compounds in membranes containing human mGluR2 was performed using frozen membranes that were thawed and briefly homogenised prior to pre-incubation in 96-well microplates (15 μg/assay well, 30 minutes, 30° C.) in assay buffer (50 mM HEPES pH 7.4, 100 mM NaCl, 3 mM MgCl2, 50 μM GDP, 10 μg/ml saponin,) with increasing concentrations of positive allosteric modulator (from 0.3 nM to 50 μM) and either a minimal pre-determined concentration of glutamate (PAM assay), or no added glutamate. […] After addition of [^35S]GTPγS (0.1 nM, f.c.) to achieve a total reaction volume of 200 μl, microplates were shaken briefly and further incubated to allow [^35S]GTPγS incorporation on activation (30 minutes, 30° C.). The reaction was stopped by rapid vacuum filtration over glass-fibre filter plates (Unifilter 96-well GF/B filter plates, Perkin-Elmer, Downers Grove, USA) microplate using a 96-well plate cell harvester (Filtermate, Perkin-Elmer, USA), and then by washing three times with 300 μl of ice-cold wash buffer (Na2PO4.2H2O 10 mM, NaH2PO4.H2O 10 mM, pH=7.4). Filters were then air-dried, and 40 μl of liquid scintillation cocktail (Microscint-O) was added to each well, and membrane-bound [^35S]GTPγS was measured in a 96-well scintillation plate reader (Top-Count, Perkin-Elmer, USA). Non-specific [^35S]GTPγS binding is determined in the presence of cold 10 μM GTP. Each curve was performed at least once using duplicate sample per data point and at 11 concentrations.
# The concentration-response curves of representative compounds of the present invention in the presence of added EC25 of mGluR2 agonist glutamate to determine positive allosteric modulation (PAM), were generated using the Prism GraphPad software (Graph Pad Inc, San Diego, USA).
SMILES,GTPγS -hR2 PAM pEC50 [1],melting point,EC50 [1]
FC(F)(F)Cc1cnc2c(Cl)c(-c3cc(Cl)c4c(ccn4CC4CC4)c3)ccn12 [Compound 18],6.60,151.3 °C,–
N#Cc1c(-c2ccc3c(ccn3-c3ccccc3)c2)ccn2c(CC(F)(F)F)cnc12 [Compound 28],–,–,219 nM
"N#Cc1c(-c2cc(Cl)c3c(ccn3C3CCOCC3)c2)ccn2c(CC(F)(F)F)cnc12 [Compound 1, 7-[7-Chloro-1-(tetrahydro-pyran-4-yl)-1H-indol-5-yl]-3-(2,2,2-trifluoroethyl) imidazo[1,2-a]pyridine-8-carbonitrile]",–,–,380 nM
"FC(F)(F)Cc1cnc2c(Cl)c(-c3ccc4c(ccn4-c4ncccn4)c3)ccn12 [Compound 25, 8-Chloro-7-(1-pyrimidin-2-yl-1H-indol-5-yl)-3-(2,2,2-trifluoro-ethyl)-imidazo[1,2-a]pyridine]",–,–,331 nM
"FC(F)(F)Cc1cnc2c(Cl)c(-c3cc(Cl)c4[nH]ccc4c3)ccn12 [Compound 2, 8-Chloro-7-(7-chloro-M-indol-5-yl)-3-(2,2,2-trifluoroethyl)-imidazo[1,2-a]-pyridine]",7.07,182.8 °C,–
N#Cc1c(-c2ccc3c(ccn3-c3ccc(F)cc3)c2)ccn2c(CC(F)(F)F)cnc12 [Compound 29],–,197.3 °C,200 nM
Cn1ccc2cc(-c3ccn4c(CC(F)(F)F)cnc4c3C#N)cc(Cl)c21 [Compound 10],–,172 °C,–
Cc1cc(Cn2ccc3cc(-c4ccn5c(CC(F)(F)F)cnc5c4C#N)ccc32)ccn1 [Compound 30],–,–,33.9 nM
"OC1CCC(N2CCOc3cc(-c4ccn5c(CC(F)(F)F)cnc5c4Cl)ccc32)CC1 (mixture of isomers) [Compound 5, 4-[7-[8-Chloro-3-(2,2,2-trifluoro-ethyl)-imidazo[1,2-a]pyridin-7-yl]-2,3-dihydro-4H-1,4-benzoxazin-4-yl]-cyclohexanol]",–,–,112 nM
CN1CCOc2cc(-c3ccn4c(CC(F)(F)F)cnc4c3C#N)ccc21 [Compound 15],–,–,575 nM
N#Cc1c(-c2ccc3c(c2)OCCN3CC2CC2)ccn2c(CC(F)(F)F)cnc12 [Compound 12],–,–,117 nM
CC(C)OCCn1ccc2cc(-c3ccn4c(CC(F)(F)F)cnc4c3C#N)ccc21 [Compound 14],–,–,813 nM
N#Cc1c(-c2ccc3c(ccn3Cc3ccncc3)c2)ccn2c(CC(F)(F)F)cnc12 [Compound 27],–,–,117 nM
N#Cc1c(-c2cc(Cl)c3c(ccn3CC3CC3)c2)ccn2c(CC(F)(F)F)cnc12 [Compound 11],6.96,175.3 °C,–
FC(F)(F)Cc1cnc2c(Cl)c(-c3ccc4c(ccn4-c4ccccn4)c3)ccn12 [Compound 24],–,–,468 nM

# Further lines, results first:
GTPγS -hR2 PAM pEC50 [1],melting point,EC50 [1],SMILES
6.64,–,–,Cn1ccc2cc(-c3ccn4c(CC(F)(F)F)cnc4c3C#N)ccc21 [Compound 7]
–,262.2 °C,129 nM,"C[C@]1(O)CC[C@H](n2ccc3cc(-c4ccn5c(CC(F)(F)F)cnc5c4Cl)ccc32)CC1 [Compound 4, trans-4-[5-[8-Chloro-3-(2,2,2-trifluoroethyl)-imidazo[1,2-a]pyridin-7-yl]-1H-indol-1-yl-]-1-methyl-cyclohexanol]"
–,131.6 °C,166 nM,O[C@H]1CC[C@H](n2ccc3cc(-c4ccn5c(CC(F)(F)F)cnc5c4Cl)ccc32)CC1 [Compound 3]
–,–,191 nM,N#Cc1c(-c2ccc3c(c2)OCCN3[C@H]2CC[C@H](O)CC2)ccn2c(CC(F)(F)F)cnc12 [Compound 19]
–,–,1070 nM,CC(C)(O)Cn1ccc2cc(-c3ccn4c(CC(F)(F)F)cnc4c3C#N)ccc21 [Compound 9]
–,171.1 °C,501 nM,C[C@]1(O)CC[C@@H](n2ccc3cc(-c4ccn5c(CC(F)(F)F)cnc5c4C#N)ccc32)CC1 [Compound 22]
–,232.9 °C,–,N#Cc1c(-c2ccc3c(ccn3C3CCOCC3)c2)ccn2c(CC(F)(F)F)cnc12 [Compound 6]
–,117.9 °C,–,N#Cc1c(-c2ccc3c(ccn3CC3CC3)c2)ccn2c(CC(F)(F)F)cnc12 [Compound 13]
–,–,245 nM,N#Cc1c(-c2ccc3c(ccn3[C@H]3CC[C@H](O)CC3)c2)ccn2c(CC(F)(F)F)cnc12 [Compound 16]
–,138.6 °C,309 nM,C[C@]1(O)CC[C@H](n2ccc3cc(-c4ccn5c(CC(F)(F)F)cnc5c4C#N)ccc32)CC1 [Compound 21]
